Results as given in patent US5286740A, “Carbamoyl derivatives” (Imperial Chemical Industries PLC, priority 1989, dated 1994).

Tested on: leukotriene LTD4 aerosol challenge in guinea-pigs
Assay: guinea-pig aerosol test (LTD4 aerosol challenge, onset of dyspnea)
Type: in vivo
Conditions: for ED50: Cavia porcellus, oral administration, solution in poly(ethylene glycol), predosed generally 1 hour before LTD4 aerosol, read-out: ED50 (protection against LTD4-induced dyspnea)
Procedure: According to this procedure, guinea-pigs are predosed with test compound as a solution in poly(ethylene glycol) (generally 1 hour) before an aerosol challenge of leukotriene LTD4 (starting with 2 ml of a 30 microgram/ml solution) and the effect of the test compound on the average time of leukotriene initiated change in breathing pattern (such as onset of dyspnea) recorded and compared with that in undosed-, control guinea-pigs. Percent protection engendered by a test compound was calculated from the time delay to the onset of dyspnea compared to that for control animals.

**Q.** With COc1cc(C(=O)NS(=O)(=O)c2ccccc2C)ccc1Cc1cn(C)c2ccc(C(=O)NCC3CCCC3)cc12 [reference compound] as the molecule, how does the ED50 read?
**A.** 19.2 µmol/kg

**Q.** For COc1cc(C(=O)NS(=O)(=O)c2ccccc2C)ccc1Cc1cn(C)c2ccc(C(=O)NC[C@H](C)CC(F)(F)F)cc12 [Example 2, (R)-3-Methoxy-4-[1-methyl-5-(2-methyl-4,4,4-trifluorobutylcarbamoyl)indol-3-ylmethyl]-N-(2-methylphenylsulfonyl)benzamide], which ED50 is on record?
**A.** 1.1 µmol/kg

**Q.** What about the untoward side-effects (oral, at several multiples of the minimum effective dose) of the same molecule?
**A.** without any indication of untoward side-effects
